Results taken from patent US20210205389A1, “METHODS AND COMPOSITIONS FOR TREATING NON-SMALL CELL LUNG CANCER” (Chang Gung Medical Foundation Keelung Chang Gung Memorial …, priority 2015, published 2021).

What was measured:
[1] = system: CL97 (gefitinib resistance cell line) xenograft; assay: CL97 xenograft tumor study; assay type: in vivo, NOD/SCID mice; conditions: oral; Gefitinib 100 mg/kg 2 times/week; C1 1 g/kg, C2 600 mg/kg, C3 150 mg/kg 5 days/week; 10 weeks
Protocol: Human lung cancer cell line CL97 (obtained from Dr. Pan-Chyr Yang's lab, 1 million cells/injection) were subcutaneously injected into the right flank of NOD/SCID mice (female, 4-6 weeks old) and allowed one-two week for tumor growth. […] Over the period of 10 weeks, tumorigenesis in both groups was measured using a caliper on a weekly basis. The change in tumor size was expressed as in fold change and plotted over time.

HUVEC cells = assay: Tube formation assay; assay type: cell-based; conditions: sorafenib 10 μM (positive control)
Protocol: Tube formation assay was used to test the inhibitory effect of Composition 3 (400 and 600 μg/ml) in HUVEC cells. Treatment of sorafenib was used as a positive control. […] All samples were assayed in triplicate. Four images were taken per well of a 96-well plate at 10×. The data were quantitated by calculating the pentagonal ring or hexagonal ring loop numbers of each well and used solvent control (DMSO) as 100%.
In addition to the study of the immune modulator role of Composition 3, whether Composition 3 might affect angiogenesis was also studied. To investigate the anti-angiogenesis ability of Composition 3, the effect of Composition 3 on HUVEC cells tube formation was first tested. In the normal condition, HUVEC cells will arrange into pentagon or hexagon shape in matrigel to form a tube.

Row | SMILES | Tumor reduction (%) [1] [%] | number of complete pentagon or hexagon tube (HUVEC cells)
1 | COc1cc2ncnc(Nc3ccc(F)c(Cl)c3)c2cc1OCCCN1CCOCC1 [Gefitinib] | 8.8 | 
2 | CNC(=O)c1cc(Oc2ccc(NC(=O)Nc3ccc(Cl)c(C(F)(F)F)c3)cc2)ccn1 [sorafenib] |  | significant decreased
